One series relates to WSU-DLCL2 cells. In words: Experiment on WSU-DLCL2 cell proliferation (Calcein-AM). It counts as cell-based. The method, then: WSU-DLCL2 cells were plated in a 96-well plate and 100 uL of cells (a density of 1×10^5 cells/mL) and 50 uL of compound stock at 3-fold concentration was added to each well, and the final volume was 150 uL/well. After 6 days of culturing, on day 7, the cells in the well plate were mixed well by pipetting, and 50 uL of the cell suspension was pipetted to be tested for cell viability using Calcein-AM. 50 uL of the cell suspension was added to a 96-well plate coated by poly-D-Lysine, and then 50 uL of HBSS containing 2 uM Calcein-AM was added to make the final concentration of Calcein-AM 1 uM. After incubation for 10 min at room temperature, the cells were rapidly centrifuged to be deposited on the bottom of the plate. The cells were cultured in the incubator for another 40 min and then the plate was read on Acumen.
The remaining cells were diluted and then plated in a 96-well plate, and 100 uL of cells and 50 uL of a compound at 3-fold concentration were added to each well for further culturing until day 14, and the cell viability was detected as described above. The IC50 was calculated.

The subject of a further series is Pfeiffer cells. The experiment in a line: Experiment on Pfeiffer cell proliferation (CellTiter-Glo). It counts as cell-based, human. On the procedure:
90 uL of cells were added to each well of a 96-well plate at 12000 cells/well, and cell-free culture medium was added to blank control wells. The plate was incubated overnight in an incubator at 37° C., 5% CO2 and 100% relative humidity. The compounds were diluted from highest to lowest concentration gradient with DMSO to make stock solutions at 400-fold and 10-fold concentration. 10 μL of 10× compound working solution was added to the cell culture plate, and the total concentration of the compound was detected from 10 μM, 9 concentration points in total, and 3-fold serial dilution was performed. 10 μL of DMSO-cell culture medium mixture solution was added to the vehicle control wells and blank control wells. The final concentration of DMSO was 0.25%. The plate was put back in the incubator for another 7 days of culturing.
The cell culture plate cultured for 7 days was taken out of the incubator, and the suspended cells in the 96-well plate were mixed well by pipetting multiple times. 74 uL of fresh cell culture medium was added to a new 96-well plate, and 16 uL of cell suspension was pipetted from the 96-well plate with cells mixed well by pipetting into the new 96-well plate to bring the total volume to 90 uL. Cells in the new 96-well plate were treated with the compound. The new 96-well plate was put back in the incubator for another 7 days of culturing, and then cell viability was detected directly.
84 μL of cell suspension was taken from the cell culture plate for cell viability detection.
CellTiter-Glo buffer and substrate were thawed and balanced to room temperature. The CellTiter-Glo buffer was added to a bottle of CellTiter-Glo substrate to dissolve the substrate, thereby preparing CellTiter-Glo working solution. The bottle was subjected to slow vortex shaking to completely dissolve the substrate. The cell culture plate was taken out and balanced to room temperature for 30 min. 50 μL of CellTiter-Glo working solution was added to each well. The cell plate was wrapped with aluminum foil to keep out of light. The plate was shaken on an orbital shaker for 2 min to induce cell lysis. The plate was placed at room temperature for 10 min to stabilize the luminescence signals. The luminescence signals were detected on 2104 En Vision plate reader.
Inhibition rates of compounds at different concentrations were calculated in Excel, followed by plotting the inhibition curves and calculating relevant parameters including minimum (%), maximum (%), and absolute IC50 using GraphPad Prism software.

Series [1] can be described thus: In vivo pharmacokinetic properties in mice. The arrangement: species or system mouse; Cmax: unit: ng/mL. As to conditions: male ICR mice; for F: intragastric 250 mg/kg vs intravenous 5 mg/kg. On the procedure:
Male ICR mice were divided into different groups with 3 mice in each group, and single intravenous injection and single intragastric administration were conducted respectively. The compounds were formulated with 10% DMSO/90% (20% Captisol) to reach an appropriate concentration and then administered intravenously at 5 mg/kg. The compounds were formulated with 0.5% CMC-Na/0.1% Tween 80 (pH=3-4) to reach an appropriate concentration and then administered intragastrically at 250 mg/kg. Blood was taken at 5 min, 15 min, 30 min, 1 h, 2 h, 4 h, 6 h, 8 h and 24 h after administration, and then subjected to EDTA-K2 anticoagulation. The concentration of the compound in the plasma was quantitatively detected by an LC-MS/MS method.

Another series has as its target EZH2 enzyme complex (Homo sapiens (Human), UniProt Q15910). The experiment in a line: Test on EZH2 inhibitory activity (TR-FRET). In kind it is biochemical. As to conditions: EZH2 enzyme complex 25 ng/uL, histone H3 peptide 4 uM, SAM 2 uM, 300 min; read-out: IC50 of EZH2 inhibition. In general terms: Time-resolved FRET reads energy transfer from a long-lived donor to a nearby acceptor.

A further series relates to WSU-DLCL2. In words: Methylated lysine of histone-H3 (H3K27Me3) detection by ELISA, WSU-DLCL2 cells. In kind it is cell-based. To be noted: Homo sapiens, WSUDLCL2, 168 h; WSU-DLCL2, 7 days treatment, H3K27Me3 normalized to total histone-3; read-out: IC50 of cell methylation, WSU-DLCL2. The method, boiled down:
(§1)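 Cells were treated 7 days with compound (4-fold dilutions, 20 uM-0.009 nM), then lysed hypotonically with NaCl adjusted to ~100 mM. Lysate-coated plates were probed by ELISA for H3K27Me3 and total H3 (TMB, A450). Methylation signal was normalised to total H3 before curve fitting.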
For orientation: ELISA stands for enzyme-linked immunosorbent assay.

Another series relates to Pfeiffer. The experiment in a line: Methylated lysine of histone-H3 (H3K27Me3) detection by ELISA, Pfeiffer cells. In kind it is cell-based, human. As to conditions: Homo sapiens, 168 h, 7 days treatment, H3K27Me3 normalized to total histone-3, read-out: IC50 of cell methylation, Pfeiffer. The method, boiled down: as §1
The mark [2] stands for this setting: single intravenous 5 mg/kg and intragastric 250 mg/kg study.
[3] abbreviates: mouse, plasma, oral, single intravenous 5 mg/kg and intragastric 250 mg/kg study.
The mark [4] stands for this setting: mouse, plasma, oral, single intravenous 5 mg/kg and intragastric 250 mg/kg study, read-out: Cmax.
[5] abbreviates: mouse, plasma, oral, single intravenous 5 mg/kg and intragastric 250 mg/kg study, read-out: Tmax.
Setting [6] is: mouse, plasma, single intravenous 5 mg/kg and intragastric 250 mg/kg study.

Read-outs that look alike come from different tables or passages of the source.

A word on the Cmax: it is the peak of the concentration-time curve. Broadly, the Tmax is the time from dosing to the highest level. As usually defined, the AUC(0-inf) is the area under the concentration-time curve extrapolated to infinity. As a reminder, the half-life is the time in which the quantity being followed falls by half.

Chain of EZH2 enzyme complex (Q15910 whole entry): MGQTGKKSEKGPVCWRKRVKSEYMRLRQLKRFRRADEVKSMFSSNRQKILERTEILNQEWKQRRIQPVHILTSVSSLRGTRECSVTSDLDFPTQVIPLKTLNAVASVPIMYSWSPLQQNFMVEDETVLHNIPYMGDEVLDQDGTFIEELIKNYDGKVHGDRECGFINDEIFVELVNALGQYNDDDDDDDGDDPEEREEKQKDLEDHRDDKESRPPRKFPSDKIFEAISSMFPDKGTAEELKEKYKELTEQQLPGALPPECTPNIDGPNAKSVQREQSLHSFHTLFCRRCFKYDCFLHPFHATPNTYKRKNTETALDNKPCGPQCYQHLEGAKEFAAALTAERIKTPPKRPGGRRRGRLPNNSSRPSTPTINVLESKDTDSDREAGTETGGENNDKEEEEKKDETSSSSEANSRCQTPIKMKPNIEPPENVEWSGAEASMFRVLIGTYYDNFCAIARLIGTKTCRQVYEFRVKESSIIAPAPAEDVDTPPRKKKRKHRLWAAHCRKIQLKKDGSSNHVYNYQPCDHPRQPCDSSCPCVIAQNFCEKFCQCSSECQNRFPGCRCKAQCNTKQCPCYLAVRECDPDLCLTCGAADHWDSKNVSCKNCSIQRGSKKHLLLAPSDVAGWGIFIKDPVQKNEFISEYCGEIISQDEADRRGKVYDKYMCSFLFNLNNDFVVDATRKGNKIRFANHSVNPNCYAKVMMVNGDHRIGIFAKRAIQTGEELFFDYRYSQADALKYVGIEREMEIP
Chain of EZH2 enzyme complex (O75530 whole entry partner): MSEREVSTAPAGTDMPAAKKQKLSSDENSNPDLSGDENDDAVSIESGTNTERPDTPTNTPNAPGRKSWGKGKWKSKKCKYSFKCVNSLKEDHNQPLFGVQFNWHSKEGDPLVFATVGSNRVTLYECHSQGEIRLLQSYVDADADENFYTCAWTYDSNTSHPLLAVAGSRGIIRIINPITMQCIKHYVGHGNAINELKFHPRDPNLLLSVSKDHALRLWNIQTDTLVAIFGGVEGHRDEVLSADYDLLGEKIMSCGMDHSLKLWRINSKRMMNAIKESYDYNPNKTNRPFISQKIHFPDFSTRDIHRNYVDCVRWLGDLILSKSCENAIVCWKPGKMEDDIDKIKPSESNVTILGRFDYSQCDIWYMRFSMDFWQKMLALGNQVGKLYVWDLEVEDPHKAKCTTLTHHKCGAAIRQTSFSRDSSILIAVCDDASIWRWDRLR
Chain of EZH2 enzyme complex (Q15022 whole entry partner): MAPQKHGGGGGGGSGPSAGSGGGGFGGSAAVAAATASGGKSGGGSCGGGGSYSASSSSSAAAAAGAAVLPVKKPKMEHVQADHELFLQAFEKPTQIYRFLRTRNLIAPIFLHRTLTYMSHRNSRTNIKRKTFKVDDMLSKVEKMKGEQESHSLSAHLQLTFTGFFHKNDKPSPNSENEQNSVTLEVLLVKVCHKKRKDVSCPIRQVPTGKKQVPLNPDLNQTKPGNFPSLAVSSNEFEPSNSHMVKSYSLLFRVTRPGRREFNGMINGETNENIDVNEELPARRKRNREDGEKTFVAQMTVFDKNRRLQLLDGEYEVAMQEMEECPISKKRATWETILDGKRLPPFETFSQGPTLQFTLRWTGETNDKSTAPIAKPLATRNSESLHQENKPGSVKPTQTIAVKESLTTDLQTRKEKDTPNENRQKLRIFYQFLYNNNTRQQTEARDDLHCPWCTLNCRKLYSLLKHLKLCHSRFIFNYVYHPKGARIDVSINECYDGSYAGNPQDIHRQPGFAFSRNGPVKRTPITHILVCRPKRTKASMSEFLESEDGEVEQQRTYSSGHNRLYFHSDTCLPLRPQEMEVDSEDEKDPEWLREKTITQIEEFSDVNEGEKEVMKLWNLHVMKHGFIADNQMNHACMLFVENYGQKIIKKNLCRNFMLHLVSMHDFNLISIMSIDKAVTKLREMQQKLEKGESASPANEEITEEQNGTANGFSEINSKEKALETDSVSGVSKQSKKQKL
Experimental for EZH2 enzyme complex: • EZH2 enzyme complex: 25 ng/uL • Histone H3 peptide substrate: 4 uM • SAM: 2 uM • Reaction time: 300 min Procedures • 1. Each compound disclosed herein was diluted with 1×HMT buffer and transferred to a 384-well assay plate at 3 uL per well; • 2. The EZH2 enzyme solution was prepared with 1×HMT buffer and transferred to the 384-well assay plate at 2 uL per well; • 3. The above assay plate was incubated for 30 min; • 4. A mixture solution of SAM and histone H3 peptide substrate at 2-fold concentration was prepared with 4×HMT buffer; • 5. 5 uL of the mixture solution of SAM and substrate was added to each well of the assay plate to react at room temperature, and the assay plate was sealed with plastic; • 6. After incubation for 5 h, 10 uL of TR-FRET detection buffer containing Tb-labeled antibody and dye-labeled receptor was added to each well of the assay plate; • 7. After incubation for 1 h at room temperature, the assay plate was detected; • 8.

As for `CCN(c1cc(OC2CN(C(=O)OC(C)(C)C)C2)cc(C(=O)NCc2c(C)cc(C)[nH]c2=O)c1C)C1CCOCC1` [EPZ194, reference compound], in the series on WSU-DLCL2 cells (WSU-DLCL2, Day 7, read-out: IC50 WSU-DLCL2 proliferation Day 7), the IC50 was 106 nM. For the same molecule, the IC50 in the series on WSU-DLCL2 cells (WSU-DLCL2, Day 14, read-out: IC50 WSU-DLCL2 proliferation Day 14) is 23 nM. In addition, in the series on Pfeiffer cells (Day 7, read-out: IC50 Pfeiffer proliferation Day 7), the IC50 amounted to 62 nM. Further, in the series on Pfeiffer cells (Day 14, read-out: IC50 Pfeiffer proliferation Day 14), the IC50 was found to be 11 nM. Besides, in series [1], the F stood at 9.91%. Moreover, in series [1] (setting [2]), the “AUC0-∞” value worked out at 7476 ± 1311 ng·h/mL, the CL was 59.5 ± 19.1 mL/min/lg, the Cmax turned out to be 4059 ± 1830 ng/mL and the T1/2 was determined as 2.13 ± 1.02 h. Moreover, the Tmax in series [1] (setting [2]) is on record as 0.83 ± 0.29 h.
With `CCN(c1cc(O[C@H]2C[C@H](N3CCOCC3)C2)cc(C(=O)NCc2c(C)cc(C)[nH]c2=O)c1C)C1CCOCC1` [Example 4, N-((4,6-dimethyl-2-oxo-1,2-dihydropyridin-3-yl)methyl)-3-(ethyl(tetrahydro-2H-pyran-4-yl)amino)-2-methyl-5-(trans-3-morpholinylcyclobutoxy)benzamide], the IC50 is 10 to 100 nM on EZH2 enzyme complex, 50 to 500 nM in the series with WSU-DLCL2 and less than 50 nM with Pfeiffer. The molecule further returned a F in series [1] of 25.1%. In series [1] (setting [2]), this molecule gave a CL of 60.6 ± 19.36 mL/min/lg. In series [1] (setting [3]), this molecule returned an AUC(0-inf) of 18800 ± 487 ng·h/mL. The Cmax in series [1] (setting [4]) stood at 16500 ± 4630 ng/mL. For the same molecule, in series [1] (setting [5]), the Tmax was found to be 0.33 ± 0.14 h. The molecule further showed a half-life in series [1] (setting [6]) of 3.13 ± 3.1 h.
`CCN(c1cc(O[C@H]2C[C@H](N3C[C@@H](C)O[C@@H](C)C3)C2)cc(C(=O)NCc2c(C)cc(C)[nH]c2=O)c1C)C1CC2CCC(C1)O2` (stereo partly drawn) [Example 47, 3-((8-oxabicyclo[3.2.1]octan-3-yl)(ethyl)amino)-N-((4,6-dimethyl-2-oxo-1,2-dihydropyridin-3-yl)methyl)-5-(trans-3-(cis-2,6-dimethylmorpholinyl)cyclobutoxy)-2-methylbenzamide]: the IC50 was in the range of 10 to 100 nM at EZH2 enzyme complex, 50 to 500 nM in the series on WSU-DLCL2 and 50 to 500 nM in the series on Pfeiffer. The F in series [1] came out at 118.1%. This molecule came in with a CL in series [1] (setting [2]) of 103 ± 11.9 mL/min/lg. In series [1] (setting [3]), this molecule yielded an AUC(0-inf) of 48000 ng·h/mL. For the same molecule, the highest concentration (Cmax) in series [1] (setting [4]) is 19600 ± 8050 ng/mL. For the same molecule, the Tmax in series [1] (setting [5]) was found to be 0.67 ± 0.29 h. In series [1] (setting [6]), this molecule showed a half-life of 3.1 ± 1.04 h.
As to `CCN(c1cc(O[C@H]2C[C@H](N3CCC(C)CC3)C2)cc(C(=O)NCc2c(C)cc(C)[nH]c2=O)c1Cl)C1CCOCC1` [Example 59, 2-chloro-N-((4,6-dimethyl-2-oxo-1,2-dihydropyridin-3-yl)methyl)-3-(ethyl(tetrahydro-2H-pyran-4-yl)amino)-5-(trans-3-(4-methylpiperidin-1-yl)cyclobutoxy)benzamide], the results for the IC50 on EZH2 enzyme complex, in the series on WSU-DLCL2 and with Pfeiffer were less than 10 nM, less than 50 nM and 50 to 500 nM, respectively. The molecule further returned a F in series [1] of 60.5%. Further, the CL in series [1] (setting [2]) stood at 59.1 ± 6.95 mL/min/lg. The molecule also gave a total exposure AUC(0-inf) in series [1] (setting [3]) of 43000 ng·h/mL. Besides, in series [1] (setting [4]), the highest concentration (Cmax) worked out at 16600 ng/mL. Also, the Tmax in series [1] (setting [5]) is 0.8 ± 0.27 h. The half-life in series [1] (setting [6]) was 6.2 ± 3.83 h.
Take `CCN(c1cc(C2CC2CN2CCN(C)CC2)cc(C(=O)NCc2c(C)cc(C)[nH]c2=O)c1C)C1CCOCC1` (stereo not shown) [Example 74, N-((4,6-dimethyl-2-oxo-1,2-dihydropyridin-3-yl)methyl)-3-(ethyl(tetrahydro-2H-pyran-4-yl)amino)-2-methyl-5-(2-((4-methylpiperazin-1-yl)methyl)cyclopropyl)benzamide]: the IC50 at EZH2 enzyme complex was 10 to 100 nM; in the series on WSU-DLCL2, 50 to 500 nM; in the series on Pfeiffer, less than 50 nM.
For `CCN(c1cc(C2CC2CN2C[C@@H](C)O[C@@H](C)C2)cc(C(=O)NCc2c(C)cc(C)[nH]c2=O)c1C)C1CCOCC1` (stereo partly drawn) [Example 75, N-((4,6-dimethyl-2-oxo-1,2-dihydropyridin-3-yl)methyl)-5-(2-((cis-2,6-dimethylmorpholinyl)methyl)cyclopropyl)-3-(ethyl(tetrahydro-2H-pyran-4-yl)amino)-2-methylbenzamide] the same measures were 10 to 100 nM, greater than 1000 nM and less than 50 nM.
Taken in the same sequence, the figures for `CCN(c1cc(C2CC2CN2CCN(CC(C)(C)C)CC2)cc(C(=O)NCc2c(C)cc(C)[nH]c2=O)c1C)C1CCOCC1` (stereo not shown) [Example 76, N-((4,6-dimethyl-2-oxo-1,2-dihydropyridin-3-yl)methyl)-3-(ethyl(tetrahydro-2H-pyran-4-yl)amino)-2-methyl-5-(2-((4-neopentylpiperazin-1-yl)methyl)cyclopropyl)benzamide] were 10 to 100 nM, 50 to 500 nM and less than 50 nM.
For `CCN(c1cc(C2CC2CN2CCCCC2)cc(C(=O)NCc2c(C)cc(C)[nH]c2=O)c1C)C1CCOCC1` (stereo not shown) [Example 77, N-((4,6-dimethyl-2-oxo-1,2-dihydropyridin-3-yl)methyl)-3-(ethyl(tetrahydro-2H-pyran-4-yl)amino)-2-methyl-5-(2-(piperidin-1-ylmethyl)cyclopropyl)benzamide] the same measures were 10 to 100 nM, 50 to 500 nM and less than 50 nM.
With `CCN(c1cc(C2CC2CN2CCC(F)(F)CC2)cc(C(=O)NCc2c(C)cc(C)[nH]c2=O)c1C)C1CCOCC1` (stereo not shown) [Example 78, 5-(2-((4,4-difluoropiperidin-1-yl)methyl)cyclopropyl)-N-((4,6-dimethyl-2-oxo-1,2-dihydropyridin-3-yl)methyl)-3-(ethyl(tetrahydro-2H-pyran-4-yl)amino)-2-methylbenzamide], the IC50 on EZH2 enzyme complex is 10 to 100 nM; with WSU-DLCL2 it was 50 to 500 nM; in the series with Pfeiffer, less than 50 nM.
Taken in the same sequence, the figures for `CCN(c1cc(C2CC2CN2CCC(F)CC2)cc(C(=O)NCc2c(C)cc(C)[nH]c2=O)c1C)C1CCOCC1` (stereo not shown) [Example 79, N-((4,6-dimethyl-2-oxo-1,2-dihydropyridin-3-yl)methyl)-3-(ethyl(tetrahydro-2H-pyran-4-yl)amino)-5-(2-((4-fluoropiperidin-1-yl)methyl)cyclopropyl)-2-methylbenzamide] were 10 to 100 nM, 50 to 500 nM and less than 50 nM.

The values are drawn from US12390472B2 (SUZHOU SINOVENT PHARMACEUTICALS CO., LTD., priority 2018, dated 2025).
